Format in all cases: cell-based
Experiment [1] has as its target human KOR (Homo sapiens, UniProt P41145). In words: GloSensor assay, Gi-mediated cAMP inhibition in HEK-293T cells transfected with human KOR. Conditions: given as Log IC50 (negative values); agonist activity, inhibition of FSK-stimulated cAMP; read-out: GloSensor Assay (Log IC50) KOR (converted).
Experiment [2] concerns the target MOR (Homo sapiens, UniProt P35372). The experiment in a line: GloSensor assay at MOR. Conditions: given as Log IC50 (negative values).
The target of experiment [3] is DOR (Homo sapiens, UniProt P41143). The experiment in a line: GloSensor assay at DOR. As to conditions: given as Log IC50 (negative values).
Chain of DOR (P41143 whole entry): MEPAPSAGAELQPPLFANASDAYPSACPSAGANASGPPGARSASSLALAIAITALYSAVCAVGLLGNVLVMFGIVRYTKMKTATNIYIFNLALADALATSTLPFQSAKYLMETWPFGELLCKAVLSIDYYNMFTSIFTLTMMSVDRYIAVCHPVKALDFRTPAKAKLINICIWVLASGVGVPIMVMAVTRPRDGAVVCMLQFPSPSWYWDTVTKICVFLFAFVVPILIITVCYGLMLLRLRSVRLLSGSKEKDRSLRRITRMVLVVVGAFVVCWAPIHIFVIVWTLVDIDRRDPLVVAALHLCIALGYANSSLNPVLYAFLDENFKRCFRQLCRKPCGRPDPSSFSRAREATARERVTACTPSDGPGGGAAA

Each structure is given as a SMILES string.

What is called IC50 is the concentration needed to halve the response being measured.

Chain of MOR (P35372 whole entry): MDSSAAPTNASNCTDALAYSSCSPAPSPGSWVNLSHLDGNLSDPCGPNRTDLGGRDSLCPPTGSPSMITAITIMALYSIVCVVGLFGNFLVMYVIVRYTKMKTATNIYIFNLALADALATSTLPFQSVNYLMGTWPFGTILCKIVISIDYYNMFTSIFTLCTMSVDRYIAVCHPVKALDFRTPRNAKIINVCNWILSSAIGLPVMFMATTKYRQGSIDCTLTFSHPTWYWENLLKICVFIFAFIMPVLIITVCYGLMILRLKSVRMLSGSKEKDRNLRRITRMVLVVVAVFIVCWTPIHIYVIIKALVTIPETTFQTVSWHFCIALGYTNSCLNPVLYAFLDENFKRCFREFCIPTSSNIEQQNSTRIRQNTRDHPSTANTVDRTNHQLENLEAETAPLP
Chain of human KOR (P41145 whole entry): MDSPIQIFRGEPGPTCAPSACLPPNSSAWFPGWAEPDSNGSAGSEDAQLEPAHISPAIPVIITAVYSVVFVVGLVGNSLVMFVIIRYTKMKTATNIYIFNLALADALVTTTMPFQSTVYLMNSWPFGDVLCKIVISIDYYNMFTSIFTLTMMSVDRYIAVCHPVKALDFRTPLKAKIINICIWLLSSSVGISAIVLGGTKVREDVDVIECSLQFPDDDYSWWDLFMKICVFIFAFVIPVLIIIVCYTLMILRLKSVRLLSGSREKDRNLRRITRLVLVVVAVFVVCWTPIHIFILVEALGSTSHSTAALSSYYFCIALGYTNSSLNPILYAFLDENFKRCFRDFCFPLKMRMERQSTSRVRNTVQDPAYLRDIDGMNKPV

With `Cn1c2ccccc2c2cc[n+]3cn(-c4ccc(Cl)cc4)c(-c4ccc(Br)cc4)c3c21` [8dbc, 1-(4-Bromophenyl)-2-(4-chlorophenyl)-11-methyl-2,11 dihydroimidazo[1′,5′:1,2]pyrido[3,4-b]indol-4-iumchloride], the concentration for half-maximal inhibition (IC50) in experiment [1], in experiment [2] and in experiment [3] was greater than 10 µM throughout.
Consider `Fc1ccc(-n2c[n+]3c4ccccc4c4c5ccccc5[nH]c4c3c2-c2ccc(Br)cc2)cc1` [12cc, 1-4-Bromphenyl)-2-(4-fluorophenyl)-2,13-dihydroimidazo[1,5-a]indolo[2,3-c]quinolin-4-ium chloride], for which the concentration for half-maximal inhibition (IC50) in experiment [1], in experiment [2] and in experiment [3] was greater than 10 µM throughout.
As to `Fc1ccc(Cn2c[n+]3ccc4c5ccccc5[nH]c4c3c2-c2ccc(Br)cc2)cc1` [9aab, 1-(4-Bromophenyl)-2-(4-fluorobenzyl)-2,11-dihydroimidazo[1′,5′:1,2]pyrido[3,4-b]indol-4-ium chloride], the IC50 in experiment [1] is 0.263 µM; in experiment [2], greater than 10 µM; in experiment [3] it was greater than 10 µM.
Turning to `Fc1ccc(-n2c[n+]3ccc4c5ccccc5[nH]c4c3c2-c2ccc(Br)cc2)c(Cl)c1` [8abl, 1-(4-Bromophenyl)-2-(2-chloro-4-fluorophenyl)-2,11-dihydrolmidazo[1′,5′:1,2]pyrido[3,4-b]indol-4-ium chloride], the concentration for half-maximal inhibition (IC50) in experiment [1], in experiment [2] and in experiment [3] was greater than 10 µM in each case.
As to `Fc1ccc(-c2c3c4[nH]c5ccccc5c4cc[n+]3cn2-c2ccc(Cl)cc2)cc1` [8agc, 2-(4-Chlorophenyl)-1-(4-fluorophenyl)-2,11-dihydrolmidazo[1′,5′:1,2]pyrido[3,4-b]indol-4-ium chloride], the IC50 in experiment [1], in experiment [2] and in experiment [3] was greater than 10 µM each time.
Consider `Brc1ccc2[nH]c3c(cc[n+]4cn(-c5ccccc5)c(-c5ccccc5Br)c34)c2c1` [8cca, 8-Bromo-1-(2-bromophenyl)-2-phenyl-2,11-dihydrolmidazo[1′,5′:1,2]pyrido[3,4-b]indol-4-ium chloride], for which the 50% inhibitory concentration (IC50) in experiment [1], in experiment [2] and in experiment [3] was greater than 10 µM in each case.
Take `Fc1ccc(-c2c3c4[nH]c5ccccc5c4cc[n+]3cn2-c2ccccc2)cc1` [8aga, 1-(4-Fluorophenyl)-2-phenyl-2,11-dihydroimidazo[1′,5′:1,2]pyrido[3,4-b]indol-4-ium chloride]: the IC50 in experiment [1], in experiment [2] and in experiment [3] was greater than 10 µM each time.
For the molecule `Clc1ccc(-c2c3c4[nH]c5ccccc5c4c4ccccc4[n+]3cn2-c2ccc(Cl)cc2)cc1` [12dd, 1,2-Bis(4-chlorophenyl)-2,13-dihydroimidazo[1,5-a]indolo[2,3-c]quinolin-4-ium chloride], the IC50 in experiment [1], in experiment [2] and in experiment [3] was greater than 10 µM each time.
In the case of `Brc1ccc(-c2c3c4[nH]c5ccccc5c4cc[n+]3cn2-c2ccc(Br)cc2)cc1` [8abb, 1,2-Bis(4-bromophenyl)-2,11-dihydroimidazo[1′,5′:1,2]pyrido[3,4-b]indol-4-ium chloride], the half-maximal inhibitory concentration (IC50) in experiment [1], in experiment [2] and in experiment [3] was greater than 10 µM each time.
With `Fc1ccc(-c2c3c4[nH]c5ccccc5c4cc[n+]3cn2-c2cccc(Br)c2)cc1` [8age, 2-(3-Bromophenyl)-1-(4-fluorophenyl)-2,11-dihydroimidazo[1′,5′:1,2]pyrido[3,4-b]indol-4-ium chloride], the half-inhibitory concentration (IC50) in experiment [1], in experiment [2] and in experiment [3] was greater than 10 µM in each case.
As for `O=[N+]([O-])c1ccc(-c2c3c4[nH]c5ccccc5c4cc[n+]3cn2-c2ccc(F)cc2)cc1` [8ald, 2-(4-Fluorophenyl)-1-(4-nitrophenyl)-2,11-dihydrolmidazo[1′,5′:1,2]pyrido[3,4-b]indol-4-ium chloride], the IC50 in experiment [1], in experiment [2] and in experiment [3] was greater than 10 µM throughout.
Consider `Fc1ccccc1-n1c[n+]2ccc3c4ccccc4[nH]c3c2c1-c1ccc(Br)cc1` [8abk, 1-(4-Bromophenyl)-2-(2-fluorophenyl)-2,11-dihydroimidazo[1′,5′:1,2]pyrido[3,4-b]indol-4-ium chloride], for which the IC50 was 0.0794 µM in experiment [1], greater than 10 µM in experiment [2] and greater than 10 µM in experiment [3].
With `Fc1ccc(-n2c[n+]3ccc4c5ccccc5[nH]c4c3c2-c2ccc(Br)cc2)cc1F` [8abm, 1-(4-Bromophenyl)-2-(3,4-difluorophenyl)-2,11-dihydroimidazo[1′,5′:1,2]pyrido[3,4-b]indol-4-ium chloride], the IC50 in experiment [1], in experiment [2] and in experiment [3] was greater than 10 µM throughout.
Consider `COC(=O)c1cc2c3ccccc3[nH]c2c2c(-c3ccc(Br)cc3)n(-c3ccc(Cl)cc3)c[n+]12` [8bbc, 1-(4-Bromophenyl)-2-(4-chlorophenyl)-5-(methoxycarbonyl)-2,11-dihydroimidazo[1′,5′:1,2]pyrido[3,4-b]indol-4-iumchloride], for which the IC50 in experiment [1], in experiment [2] and in experiment [3] was greater than 10 µM each time.
On to `Clc1ccc(-n2c[n+]3ccc4c5ccccc5[nH]c4c3c2-c2cccc(Cl)c2)cc1` [8afc, 1-(3-Chlorophenyl)-2-(4-chlorophenyl)-2,11-dihydrolmidazo[1′,5′:1,2]pyrido[3,4-b]indol-4-ium chloride], for which the IC50 is 0.316 µM in experiment [1], greater than 10 µM in experiment [2] and greater than 10 µM in experiment [3].
As for `COc1ccc(Cn2c[n+]3ccc4c5ccccc5[nH]c4c3c2-c2ccc(Br)cc2)cc1` [9aae], the IC50 in experiment [1] is 3.31 µM; in experiment [2] it was greater than 10 µM; in experiment [3] it was greater than 10 µM.
`Clc1ccccc1-c1c2c3[nH]c4ccccc4c3cc[n+]2cn1-c1ccc(Br)cc1` [8aeb, 2-(4-Bromophenyl)-1-(2-chlorophenyl)-2,11-dihydroimidazo[1′,5′:1,2]pyrido[3,4-b]indol-4-ium chloride]: the IC50 in experiment [1] was greater than 10 µM; in experiment [2] it was 1.26 µM; in experiment [3] it was 2 µM.
The matching figures for `Fc1ccc(-n2c[n+]3ccc4c5ccccc5[nH]c4c3c2-c2cccc(F)c2)cc1` [8aid, 1-(3-Fluorophenyl)-2-(4-fluorophenyl)-2,11-dihydroimidazo[1′,5′:1,2]pyrido[3,4-b]indol-4-ium]: 0.2 µM, greater than 10 µM and greater than 10 µM.
Take `c1ccc(-n2c[n+]3ccc4c5ccccc5[nH]c4c3c2-c2cc3ccccc3o2)cc1` [8amd, 1-(Benzofuran-2-yl)-2-phenyl-2,11-dihydroimidazo[1′,5′:1,2]pyrido[3,4-b]indol-4-ium chloride]: the figures for the 50% inhibitory concentration (IC50) in experiment [1], in experiment [2] and in experiment [3] were 0.0398 µM, greater than 10 µM and greater than 10 µM, respectively.
With `Fc1ccc(-c2c3c4[nH]c5ccccc5c4cc[n+]3cn2-c2ccc(Br)cc2)cc1` [8agb, 2-(4-Bromophenyl)-1-(4-fluorophenyl)-2,11-dihydroimidazo[1′,5′:1,2]pyrido[3,4-b]indol-4-ium chloride], the IC50 in experiment [1], in experiment [2] and in experiment [3] was greater than 10 µM each time.
Take `Brc1ccccc1-c1c2c3[nH]c4ccccc4c3cc[n+]2cn1-c1ccccc1` [8aca, 1-(2-Bromophenyl)-2-phenyl-2,11-dihydroimidazo[1′,5′:1,2]pyrido[3,4-b]indol-4-ium chloride]: the results for the half-inhibitory concentration (IC50) in experiment [1], in experiment [2] and in experiment [3] were 0.2 µM, greater than 10 µM and 3.16 µM, respectively.
For `Brc1cccc(-n2c[n+]3ccc4c5ccccc5[nH]c4c3c2-c2ccccc2)c1` [8aae, 2-(3-Bromophenyl)-1-phenyl-2,11-dihydrolmidazo[1′,5′:1,2]pyrido[3,4-b]indol-4-ium chloride], the IC50 in experiment [1], in experiment [2] and in experiment [3] was greater than 10 µM each time.
As to `c1ccc(-c2c3c4[nH]c5ccccc5c4cc[n+]3cn2-c2ccccc2)cc1` [8aaa, 1,2-Diphenyl-2,11-dihydroimidazo[1′,5′:1,2]pyrido[3,4-b]indol-4-ium chloride], the half-inhibitory concentration (IC50) in experiment [1], in experiment [2] and in experiment [3] was greater than 10 µM in each case.
As to `Clc1ccccc1-c1c2c3[nH]c4ccccc4c3cc[n+]2cn1-c1ccccc1` [8aea, 1-(2-Chlorophenyl)-2-phenyl-2,11-dihydroimidazo[1′,5′:1,2]pyrido[3,4-b]indol-4-ium chloride], the IC50 in experiment [1], in experiment [2] and in experiment [3] was greater than 10 µM throughout.
Regarding `COc1ccc(-n2c[n+]3ccc4c5ccccc5[nH]c4c3c2-c2ccc(Br)cc2)cc1` [8abg, 1-(4-Bromophenyl)-2-(4-methoxyphenyl)-2,11-dihydrolmidazo[1′,5′:1,2]pyrido[3,4-b]indol-4-ium chloride], the IC50 in experiment [1], in experiment [2] and in experiment [3] was greater than 10 µM each time.
Take `Fc1ccc(-c2c3c4[nH]c5ccccc5c4cc[n+]3cn2-c2ccc(F)cc2)cc1` [8agd, 1,2-Bis(4-fluorophenyl)-2,11-dihydroimidazo[1′,5′:1,2]pyrido[3,4-b]indol-4-ium chloride]: the IC50 in experiment [1], in experiment [2] and in experiment [3] was greater than 10 µM in each case.
With `Clc1cccc(-n2c[n+]3ccc4c5ccccc5[nH]c4c3c2-c2ccccc2)c1` [8aaf, 2-(3-Chlorophenyl)-1-phenyl-2,11-dihydroimidazo[1′,5′:1,2]pyrido[3,4-b]indol-4-ium chloride], the concentration for half-maximal inhibition (IC50) in experiment [1], in experiment [2] and in experiment [3] was greater than 10 µM in each case.
Regarding `Fc1ccc(-c2c3c4[nH]c5ccccc5c4cc[n+]3cn2-c2cccc(Cl)c2)cc1` [8agf, 2-(3-Chlorophenyl)-1-(4-fluorophenyl)-2,11-dihydroimidazo[1′,5′:1,2]pyrido[3,4-b]indol-4-ium chloride], the IC50 in experiment [1], in experiment [2] and in experiment [3] was greater than 10 µM in each case.

These data come from patent US20250368645A1, “BETA CARBOLINE ANALOGUES AS SELECTIVE AND BIASED KAPPA OPIOID RECEPTORS AGONISTS FOR TREATING VARIOUS ASSOCIATED PATHOPHYSIOLOGICAL CONDITIONS” (COUNCIL OF SCIENTIFIC AND INDUSTRIAL RESEARCH, priority 2022, published 2025).
